Laboratory results taken from paper PMC5063960, “N-acetylglucosamine sensing by a GCN5-related N-acetyltransferase induces transcription via chromatin histone acetylation in fungi” (Nature Communications, 2016).

Target: T1, Ngs1 (Candida albicans, UniProt A0A1D8PRM0)
T1 construct: full length (963 aa), N-terminal 3xFLAG tag, expressed from NGS1 promoter in C. albicans ngs1 mutant; protein extract
Assay: GlcNAc-agarose pull-down from protein extract, competition with free GlcNAc, anti-FLAG Western blot
Format: binding
Conditions: 100 mM free GlcNAc as competitor; 4 °C overnight; GH3 homology domain site

T1 sequence (A0A1D8PRM0 entry or part of it): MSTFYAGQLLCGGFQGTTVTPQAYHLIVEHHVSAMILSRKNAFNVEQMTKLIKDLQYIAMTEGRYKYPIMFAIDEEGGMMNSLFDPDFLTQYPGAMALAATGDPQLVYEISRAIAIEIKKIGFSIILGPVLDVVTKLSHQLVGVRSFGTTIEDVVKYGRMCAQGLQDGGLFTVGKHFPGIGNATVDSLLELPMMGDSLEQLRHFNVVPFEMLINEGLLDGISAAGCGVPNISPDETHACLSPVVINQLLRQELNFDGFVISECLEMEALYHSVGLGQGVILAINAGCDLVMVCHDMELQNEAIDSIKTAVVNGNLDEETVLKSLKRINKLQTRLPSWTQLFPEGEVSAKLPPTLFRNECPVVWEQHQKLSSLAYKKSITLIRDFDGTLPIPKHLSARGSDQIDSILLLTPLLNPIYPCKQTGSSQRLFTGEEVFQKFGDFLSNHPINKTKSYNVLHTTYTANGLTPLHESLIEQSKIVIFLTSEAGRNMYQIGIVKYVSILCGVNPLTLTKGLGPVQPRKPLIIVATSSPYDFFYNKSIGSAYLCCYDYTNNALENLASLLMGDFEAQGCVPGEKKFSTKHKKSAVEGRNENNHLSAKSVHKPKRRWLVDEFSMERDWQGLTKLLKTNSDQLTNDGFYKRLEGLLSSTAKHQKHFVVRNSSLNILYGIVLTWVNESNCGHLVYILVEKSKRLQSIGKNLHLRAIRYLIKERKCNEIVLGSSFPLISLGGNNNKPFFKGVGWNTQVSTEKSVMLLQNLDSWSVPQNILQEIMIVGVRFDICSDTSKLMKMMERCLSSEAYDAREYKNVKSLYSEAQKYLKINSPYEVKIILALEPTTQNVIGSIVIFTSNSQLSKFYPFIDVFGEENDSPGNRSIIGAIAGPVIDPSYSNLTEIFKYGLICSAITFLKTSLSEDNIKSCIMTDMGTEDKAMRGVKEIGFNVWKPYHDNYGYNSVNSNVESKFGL

`CC(=O)N[C@H]1C(O)O[C@H](CO)[C@@H](O)[C@@H]1O` (stereo partly shown) [GlcNAc] was tested, and the “GlcNAc-agarose pull-down from protein extract, competition with free GlcNAc, ant” value was “The binding of GlcNAc-agarose with FLAG-Ngs1 was greatly reduced when free GlcNAc was added”.
